Measured values from patent publication US12522877B2, “Early detection of drug-resistant mycobacterium tuberculosis” (The Translational Genomics Research Institute, priority 2020, dated 2026).
“Also recorded” adds a separate entry of the source.

Columns and labels:
[1] = system: M. tuberculosis isolates; parameters: species or system Mycobacterium tuberculosis
[2] = system: M. tuberculosis isolates; type: cell-based, Mycobacterium tuberculosis
[3] = system: M. tuberculosis isolates; type: cell-based, Mycobacterium tuberculosis; remark: listed apart in the source

Structure (SMILES)	GenoType MTBDRplus [1]	Genotype MTBDRplus result [1]	Phenotypic susceptibility to bedaquiline [2]	patients phenotypically and genotypically resistant to bedaquiline [3] [%]
NNC(=O)c1ccncc1 [Isoniazid]	R	low-level isoniazid resistance	–	–
CO[C@H]1/C=C/O[C@@]2(C)Oc3c(C)c(O)c4c(O)c(c(/C=N/N5CCN(C)CC5)c(O)c4c3C2=O)NC(=O)/C(C)=C\C=C\[C@H](C)[C@H](O)[C@@H](C)[C@@H](O)[C@@H](C)[C@H](OC(C)=O)[C@@H]1C [Rifampicin]	R	–	–	–
COc1nc2ccc(Br)cc2cc1[C@@H](c1ccccc1)[C@@](O)(CCN(C)C)c1cccc2ccccc12 [bedaquiline]	–	–	phenotypically susceptible; also recorded: phenotypically resistant	47
